Results taken from patent publication US8772323B2, “Benzoxazole- and tetrahydrobenzoxazole-substituted pyridazinones as GPR119 agonists” (Boehringer Ingelheim International GmbH, priority 2010, dated 2014).
Structures can show the parent of a compound that is named as a salt.

target: human GPR119 (Homo sapiens (Human), UniProt Q8TDV5); experiment: AlphaScreen cAMP assay in Min-6/hGPR119 cells (GPR119 activation, intracellular cAMP); type: cell-based; conditions: MIN6 cells stably transfected with human GPR119; 45 minutes' incubation at RT; AlphaScreen cAMP Assay Kit
In short: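 cAMP quantified by AlphaScreen after 45 min room-temperature compound exposure in HEPES/bicarbonate buffer, pH 7.4, containing 0.5 mM IBMX, 0.1% BSA and 1% DMSO final. Cells were Min-6 stably transfected with human GPR119, seeded 24 h beforehand.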

Sequence of human GPR119 (Q8TDV5 whole entry): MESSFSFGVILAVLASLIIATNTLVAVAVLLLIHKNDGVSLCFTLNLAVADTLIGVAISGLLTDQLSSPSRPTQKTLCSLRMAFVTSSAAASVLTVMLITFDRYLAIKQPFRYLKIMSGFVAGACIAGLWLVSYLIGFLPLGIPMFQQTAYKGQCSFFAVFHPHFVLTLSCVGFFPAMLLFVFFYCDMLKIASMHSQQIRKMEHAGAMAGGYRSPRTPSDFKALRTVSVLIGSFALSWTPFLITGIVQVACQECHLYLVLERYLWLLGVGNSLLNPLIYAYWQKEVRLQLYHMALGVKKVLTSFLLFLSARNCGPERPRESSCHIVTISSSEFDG

Going from O=C1NN=C([C@@H]2CCc3nc(-c4ccccc4)oc3C2)[C@H]2C[C@@H]12 [Example 132, (1R,6S)-5-((R)-2-phenyl-4,5,6,7-tetrahydro-benzoxazol-6-yl)-3,4-diaza-bicyclo[4.1.0]hept-4-en-2-one] to O=C1NN=C([C@H]2CCc3nc(-c4ccccc4)oc3C2)[C@@H]2C[C@H]12 [Example 133, (1S,6R)-5-((S)-2-phenyl-4,5,6,7-tetrahydro-benzoxazol-6-yl)-3,4-diaza-bicyclo[4.1.0]hept-4-en-2-one], the EC50 falls from 4160 nM to 300 nM (14-fold). The second is the more potent here.

Going from O=C1NN=C([C@@H]2CCc3nc(-c4ccccc4)oc3C2)[C@@H]2C[C@H]12 [Example 134, (1S,6R)-5-((R)-2-phenyl-4,5,6,7-tetrahydro-benzoxazol-6-yl)-3,4-diaza-bicyclo[4.1.0]hept-4-en-2-one] to O=C1NN=C(N2CCc3nc(-c4ccccc4)oc3C2)C2CC12 (stereo not drawn) [Example 135, 5-(2-phenyl-4,5,6,7-tetrahydro-4H-oxazolo[5,4-c]pyridin-5-yl)-3,4-diaza-bicyclo[4.1.0]hept-4-en-2-one], the EC50 falls from 1630 nM to 391 nM (4.2-fold).

First: O=C1NN=C(c2ccc3nc(Cc4ccccc4)oc3c2)C2CC12 (stereo not drawn) [Example 136, 5-(2-benzyl-benzoxazol-6-yl)-3,4-diaza-bicyclo[4.1.0]hept-4-en-2-one]
Second: CC[C@H]1C(c2ccc3nc(-c4ccccc4)oc3c2)=NNC(=O)[C@H]1C [Example 146, (4S,5R)-5-ethyl-4-methyl-6-(2-phenyl-1,3-benzoxazol-6-yl)-2,3,4,5-tetrahydropyridazin-3-one]
The EC50 of the first is 4.4-fold lower: 2020 nM for the first, 8850 nM for the second. The first is the more potent here.

O=C1NN=C(c2ccc3nc(-c4ccc(OCCN5CCOCC5)cc4)oc3c2)C2CC12 (stereo not drawn) [Example 137, 5-{2-[4-(2-morpholin-4-yl-ethoxy)-phenyl]-benzoxazol-6-yl}-3,4-diaza-bicyclo[4.1.0]hept-4-en-2-one] and CCC1CC(=O)NN=C1c1ccc2nc(-c3ccc(OCCN4CCCC4)cc3)oc2c1 (stereo not drawn) [Example 159, 5-ethyl-6-{2-[4-(2-pyrrolidin-1-yl-ethoxy)-phenyl]-benzoxazol-6-yl}-4.5-dihydro-2H-pyridazin-3-one] are within 1.5-fold of each other in EC50: 497 nM for the first, 623 nM for the second.

Going from O=C1CC(C2CC2)C(N2CCc3nc(-c4ccccc4)oc3C2)=NN1 (stereo not drawn) [Example 138, 5-cyclopropyl-6-(2-phenyl-6,7-dihydro-4H-oxazolo[5,4-c]pyridin-5-yl)-4,5-dihydro-2H-pyridazin-3-one] to CC1NC(=O)NN=C1c1ccc2nc(-c3ccccc3)oc2c1 (stereo not drawn) [Example 142, 5-methyl-6-(2-phenyl-benzoxazol-6-yl)-4,5-dihydro-2H-[1,2,4]triazin-3-one], the EC50 falls from 1310 nM to 539 nM (2.4-fold).

Compared with CC1CC(c2ccc3nc(-c4cccs4)oc3c2)=NNC1=O (stereo not drawn) [Example 139, 4-methyl-6-(2-thiophen-2-yl-benzoxazol-6-yl)-4,5-dihydro-2H-pyridazin-3-one], CCC1CC(c2ccc3nc(-c4cccs4)oc3c2)=NNC1=O (stereo not drawn) [Example 141, 4-ethyl-6-(2-thiophen-2-yl-benzoxazol-6-yl)-4,5-dihydro-2H-pyridazin-3-one] is 4.7-fold higher in EC50: 1560 nM for the first, 7330 nM for the second.

Going from CCCCC1CC(c2ccc3nc(-c4cccs4)oc3c2)=NNC1=O (stereo not drawn) [Example 140, 4-butyl-6-(2-thiophen-2-yl-benzoxazol-6-yl)-4,5-dihydro-2H-pyridazin-3-one] to CC[C@H]1C(c2ccc3nc(-c4ccccc4)oc3c2)=NNC(=O)[C@@H]1C [Example 147, (4R,5R)-5-ethyl-4-methyl-6-(2-phenyl-1,3-benzoxazol-6-yl)-2,3,4,5-tetrahydropyridazin-3-one], the EC50 falls from over 10000 nM to 79 nM. The second is the more potent here.

Compared with O=C1NCC(c2ccc3nc(-c4ccccc4)oc3c2)=NN1 [Example 143, 6-(2-phenyl-benzoxazol-6-yl)-4,5-dihydro-2H-[1,2,4]triazin-3-one], CCC1NC(=O)NN=C1c1ccc2nc(-c3ccccc3)oc2c1 (stereo not drawn) [Example 144, 5-ethyl-6-(2-phenyl-benzoxazol-6-yl)-4,5-dihydro-2H-[1,2,4]triazin-3-one] is 2.5-fold higher in EC50: 397 nM for the first, 987 nM for the second.

First: CCC1CC(=O)NN=C1c1ccc2nc(-c3cccc(OCCN4CCCCC4)c3)oc2c1 (stereo not drawn) [Example 148, 5-ethyl-6-{2-[3-(2-piperidin-1-yl-ethoxy)-phenyl]-benzoxazol-6-yl}-4,5-dihydro-2H-pyridazin-3-one]
Second: CCC1CC(=O)NN=C1c1ccc2nc(-c3cccc(OCCN4CCCCCC4)c3)oc2c1 (stereo not drawn) [Example 149, 6-{2-[3-(2-azepan-1-yl-ethoxy)-phenyl]-benzoxazol-6-yl}-5-ethyl-4,5-dihydro-2H-pyridazin-3-one]
The EC50 of the first is 2.8-fold higher: 1560 nM for the first, 567 nM for the second.

Going from CCC1CC(=O)NN=C1c1ccc2nc(-c3cccc(OCc4ccncc4)c3)oc2c1 (stereo not drawn) [Example 150, 5-ethyl-6-{2-[3-(pyridin-4-ylmethoxy)-phenyl]-benzoxazol-6-yl}-4,5-dihydro-2H-pyridazin-3-one] to CCC1CC(=O)NN=C1c1ccc2nc(-c3cccc(OCCN(C(C)C)C(C)C)c3)oc2c1 (stereo not drawn) [Example 154, 6-{2-[3-(2-diisopropylamino-ethoxy)-phenyl]-benzoxazol-6-yl}-5-ethyl-4,5-dihydro-2H-pyridazin-3-one], the EC50 falls from 1260 nM to 424 nM (3-fold).

Going from CCC1CC(=O)NN=C1c1ccc2nc(-c3cccc(OCCN4C(C)(C)CCCC4(C)C)c3)oc2c1 (stereo not drawn) [Example 151, 5-ethyl-6-(2-{3-[2-(2,2,6,6-tetramethyl-piperidin-1-yl)-ethoxy]-phenyl}-benzoxazol-6-yl)-4,5-dihydro-2H-pyridazin-3-one] to CCC1CC(=O)NN=C1c1ccc2nc(-c3cccc(OCCCN4CCCCC4)c3)oc2c1 (stereo not drawn) [Example 152, 5-ethyl-6-{2-[3-(3-piperidin-1-yl-propoxy)-phenyl]-benzoxazol-6-yl}-4,5-dihydro-2H-pyridazin-3-one], the EC50 rises from 116 nM to 1080 nM (9.3-fold). The first is the more potent here.

Going from CCC1CC(=O)NN=C1c1ccc2nc(-c3cccc(OCCN4CCC(C#N)CC4)c3)oc2c1 (stereo not drawn) [Example 153, 1-(2-{3-[6-(4-ethyl-6-oxo-1,4,5,6-tetrahydro-pyridazin-3-yl)-benzoxazol-2-yl]-phenoxy}-ethyl)-piperidine-4-carbonitrile] to CCC1CC(=O)NN=C1c1ccc2nc(-c3ccc(OCCN4CCC(C#N)CC4)cc3)oc2c1 (stereo not drawn) [Example 163, 1-(2-{4-[6-(4-ethyl-6-oxo-1,4,5,6-tetrahydro-pyridazin-3-yl)-benzoxazol-2-yl]-phenoxy}-ethyl)-piperidin-4-carbonitrile], the EC50 falls from 735 nM to 97 nM (7.6-fold).

First: CCC1CC(=O)NN=C1c1ccc2nc(-c3cccc(OCCN4CCN(C(=O)OC(C)(C)C)CC4)c3)oc2c1 (stereo not drawn) [Example 155, tert-butyl 4-(2-{3-[6-(4-ethyl-6-oxo-1,4,5,6-tetrahydro-pyridazin-3-yl)-benzoxazol-2-yl]-phenoxy}-ethyl)-piperazine-1-carboxylate]
Second: CCC1CC(=O)NN=C1c1ccc2nc(-c3ccc(OCCN4CCN(C(=O)OC(C)(C)C)CC4)cc3)oc2c1 (stereo not drawn) [Example 165, terl-butyl 4-(2-{4-[6-(4-ethyl-6-oxo-1,4,5,6-tetrahydro-pyridazin-3-yl)-benzoxazol-2-yl]-phenoxy}-ethyl)-piperazine-1-carboxylate]
The EC50 of the first is 66-fold higher: 7750 nM for the first, 118 nM for the second. The second is the more potent here.

Compared with CCC1CC(=O)NN=C1c1ccc2nc(-c3cccc(OCCN(CC(C)C)CC(C)C)c3)oc2c1 (stereo not drawn) [Example 156, 6-{2-[3-(2-diisobutylamino-ethoxy)-phenyl]-benzoxazol-6-yl}-5-ethyl-4,5-dihydro-2H-pyridazin-3-one], CCC1CC(=O)NN=C1c1ccc2nc(-c3ccc(OCCN(CC(C)C)CC(C)C)cc3)oc2c1 (stereo not drawn) [Example 160, 6-{2-[4-(2-diisobulylamino-ethoxy)-phenyl]-benzoxazol-6-yl}-5-ethyl-4,5-dihydro-2H-pyridazin-3-one] is 2-fold lower in EC50: 248 nM for the first, 124 nM for the second.

Compared with CCC1CC(=O)NN=C1c1ccc2nc(-c3cccc(OCCN4CCN(C(C)CC)CC4)c3)oc2c1 (stereo not drawn) [Example 157, 6-(2-{3-[2-(4-sec-butyl-piperazin-1-yl)-ethoxy]-phenyl}-benzoxazol-6-yl)-5-ethyl-4,5-dihydro-2H-pyridazin-3-one], CCC1CC(=O)NN=C1c1ccc2nc(-c3ccc(OCCN4CCN(C(C)CC)CC4)cc3)oc2c1 (stereo not drawn) [Example 166, 6-(2-{4-[2-(4-sec-butyl-piperazin-1-yl)-ethoxy]-phenyl}-benzoxazol-6-yl)-5-ethyl-4,5-dihydro-2H-pyridazin-3-one] is 3.3-fold lower in EC50: 2030 nM for the first, 621 nM for the second. The second is the more potent here.

Going from CCC1CC(=O)NN=C1c1ccc2nc(-c3ccc(OCc4ccc(S(C)(=O)=O)cc4)cc3)oc2c1 (stereo not drawn) [Example 158, 5-ethyl-6-{2-[4-(4-methanesulphonyl-benzoxy)-phenyl]-benzoxazol-6-yl}-4,5-dihydro-2H-pyridazin-3-one] to CCC1CC(=O)NN=C1c1ccc2nc(-c3ccc(OCCN4CCCC4=O)cc3)oc2c1 (stereo not drawn) [Example 167, 5-ethyl-6-(2-{4-[2-(2-oxo-pyrrolidin-1-yl)-ethoxy]-phenyl}-benzoxazol-6-yl)-4,5-dihydro-2H-pyridazin-3-one], the EC50 falls from 1960 nM to 1030 nM (1.9-fold). The second is the more potent here.

First: CCC1CC(=O)NN=C1c1ccc2nc(-c3ccc(OCCCN4CCCCC4)cc3)oc2c1 (stereo not drawn) [Example 161, 5-ethyl-6-{2-[4-(3-piperidin-1-yl-propoxy)-phenyl]-benzoxazol-6-yl}-4,5-dihydro-2H-pyridazin-3-one x HCl]
Second: CCC1CC(=O)NN=C1c1ccc2nc(-c3ccc(OCCN4CCN(C(C)=O)CC4)cc3)oc2c1 (stereo not drawn) [Example 162, 6-(2-{4-[2-(4-acetyl-piperazin-1-yl)-ethoxy]-phenyl}-benzoxazol-6-yl)-5-ethyl-4,5-dihydro-2H-pyridazin-3-one]
The EC50 of the first is 31-fold lower: 293 nM for the first, 9120 nM for the second.

Going from CCC1CC(=O)NN=C1c1ccc2nc(-c3ccc(OCCN4C[C@H]5CC[C@@H]4C5)cc3)oc2c1 (stereo partly drawn) [Example 164, 6-(2-{4-[2-(2-aza-bicyclo[2.2.1]-hept-2-yl)-ethoxy]-phenyl}-benzoxazol-6-yl)-5-ethyl-4,5-dihydro-2H-pyridazin-3-one] to CCC1CC(=O)NN=C1c1ccc2nc(-c3ccc(OCCN4CCN(C(C)C)CC4)cc3)oc2c1 (stereo not drawn) [Example 168, 5-ethyl-6-(2-{4-[2-(4-isopropyl-piperazin-1-yl)-ethoxy]-phenyl}-benzoxazol-6-yl)-4,5-dihydro-2H-pyridazin-3-one], the EC50 rises from 552 nM to 3010 nM (5.5-fold).
